Measurements published in PubChem BioAssay AID330 (DTP/NCI, 2004).
Inconclusive results and toxic doses are left out.

Tested on: P388 leukemia ip, CD2F1 mice, survival T/C
Experiment: NCI In Vivo Anticancer Drug Screen. Data for tumor model P388 Leukemia (intraperitoneal) in CD2F1 (CDF1) mice
Settings: endpoint: median survival time, higher = longer survival
Method in brief: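 Mice carrying the transplanted tumor received test compound or vehicle. Survival was recorded in each group, and the value is the treated-group measurement divided by that of the vehicle-treated control group.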

[1] = dose: 60.0 mg/kg/injection, schedule: Q01DX005 (ip), vehicle: saline with Tween-80
[2] = dose: 20.0 mg/kg/injection, schedule: Q01DX009 (ip), vehicle: saline with Tween-80

Question: Which results are given for `Cc1nc(C(=O)N=C(N)N)c(N)nc1-c1ccccc1`?
Answer: T/C (dose: 15.0 mg/kg/injection, schedule: Q01DX005 (ip), vehicle: saline with Tween-80): 106 % of control; T/C (dose: 30.0 mg/kg/injection, schedule: Q01DX005 (ip), vehicle: saline with Tween-80): 104 % of control; T/C [1]: 100 % of control

Question: Which T/C (dose: 10.0 mg/kg/injection, schedule: Q01DX009 (ip), vehicle: saline with Tween-80) does the source give for `CC(=O)CC(=O)c1ccc(F)cc1.CC(=O)CC(=O)c1ccc(F)cc1.[Cu]` here?
Answer: 88 % of control

Question: And the T/C [2]?
Answer: 89 % of control

Question: With `C/C(=C\c1ccc(OCC(=O)O)c2ccccc12)[N+](=O)[O-]` as the molecule, how does the T/C (dose: 25.0 mg/kg/injection, schedule: Q01DX001 (ip), vehicle: saline with Tween-80) read?
Answer: 110 % of control

Question: What about the T/C (dose: 50.0 mg/kg/injection, schedule: Q01DX001 (ip), vehicle: saline with Tween-80) of the same molecule?
Answer: 111 % of control

Question: What about the T/C (dose: 100.0 mg/kg/injection, schedule: Q01DX001 (ip), vehicle: saline with Tween-80) of the same molecule?
Answer: 101 % of control

Question: `O=C1CCSC(=S)N1c1ccc(F)c(F)c1` was tested. Which T/C (dose: 50.0 mg/kg/injection, schedule: Q01DX009 (ip), vehicle: suspension in saline) did it give?
Answer: 107 % of control

Question: And the T/C (dose: 100.0 mg/kg/injection, schedule: Q01DX009 (ip), vehicle: suspension in saline)?
Answer: 92 % of control

Question: And the T/C (dose: 200.0 mg/kg/injection, schedule: Q01DX009 (ip), vehicle: suspension in saline)?
Answer: 92 % of control

Question: What does the source list for `C=CC(C(=O)O)S(=O)(=O)O` (stereo unspecified)?
Answer: T/C [2]: 112 % of control; T/C (dose: 40.0 mg/kg/injection, schedule: Q01DX009 (ip), vehicle: saline with Tween-80): 103 % of control

Question: For `COC(=O)C(=O)C(C(=O)C(c1ccccc1)c1ccccc1)c1nc2n(c1O)/C(=N/C(=O)Nc1ccc(Cl)cc1)N=N2` (stereo unspecified), which T/C [1] is on record?
Answer: 100 % of control

Question: And the T/C (dose: 120.0 mg/kg/injection, schedule: Q01DX005 (ip), vehicle: saline with Tween-80)?
Answer: 98 % of control

Question: And the T/C (dose: 240.0 mg/kg/injection, schedule: Q01DX005 (ip), vehicle: saline with Tween-80)?
Answer: 99 % of control
